From patent publication US20150079000A1, “Labelled Quinoxaline Derivatives as Multimodal Radiopharmaceuticals and Their Precursors” (INSTITUT NATIONAL DE LA SANTET DE LA RECHERCHE MEDICALE, priority 2012, published 2015)

How the values were obtained:
[1] = test system: B16 murine melanoma tumours; assay: Ex vivo biodistribution of [18F]-labelled compounds; type: in vivo, C57BL/6J mice
Procedure: All our studies were performed in accordance with French and European Economic Community (86-609, EEC) guidelines for care of laboratory animals. Protocols were performed under the authorization of the French Direction des Services Veterinaires (authorization no. CE 86-12). Male C57BL/6J mice were originating from Charles River laboratories and maintained at 21° C. with a 12 h/12 h light/dark cycle, fed with a breeding diet (diet A04 from Safe, Villemoisson, France) and received water ad libitum. For transplantation B16BL6 cell suspension were grown in a monolayer culture to confluence, after which cells were trypsinized, washed with phosphate buffer saline (PBS) and they were resuspended in PBS. Mice were anesthetized by isoflurane (4% for induction and 2±0.5% for maintaining in oxygen flux) inhalation. The primary tumour model was induced by subcutaneous injection of 3×10^5 melanoma B16B16 cells in 0.1 mL on the right shoulder of mice.
Ex vivo biodistribution studies: An ex vivo biodistribution study was performed for better comparison of [^18F](1) and [^18F](5). Experimentations were undertaken at day-10 or day-14 after cell inoculation (n=3-6/group). […] Tumours and major organs and tissues were promptly excised, harvested, weighted and their radioactivity counted using a calibrated γ-counter with a 400 to 600 keV energy window. After radioactive decay correction, results were expressed as percentage of injected dose per gram of tissue (% ID/g).

A375 tumours = assay: PET imaging in A375 tumour bearing mice; type: in vivo, Swiss nudes mice; conditions: 1 h p.i.
Procedure: Protocols were performed under the authorization of the French Direction des Services Veterinaires (authorization no. CE 86-12). Female Swiss nudes mice (6 weeks old) were originating from Charles River laboratories and maintained at 21° C. with a 12 h/12 h light/dark cycle, fed with a breeding diet (diet A04 from Safe, Villemoisson, France) and received water ad libitum. For transplantation cell suspension were grown in a monolayer culture to confluence, after which cells were trypsinized, washed with phosphate buffer saline (PBS) and they were resuspended in PBS. Mice were anesthetized by isoflurane (4% for induction and 2±0.5% for maintaining in oxygen flux) inhalation. The primary tumour model was induced by subcutaneous injection of 3×10^6 melanoma SKMEL-3 (pigmented cell line) or A375 (non-pigmented cell ligne) cells in 0.1 mL on the right shoulder of mice.
Whole-body PET scans were acquired 1 h after bolus injection of 10 MBq of [^18F](1) in a volume of 0.15 ml via the tail vein. […]
Regional tracer uptake was quantified by standard region-of-interest (ROI) analysis with eXplore Vista software package. […]

## CCN(CCNC(=O)c1cnc2cc(I)ccc2n1)CCOCCOCCOCC[18F] [[^18F](1)]
[1]; 1 h p.i.
  % ID/g (tumour): 14.05 ± 1.42 % ID/g
  % ID/g Blood: 1.42 ± 0.32 % ID/g
  % ID/g Bones: 1.40±0.10 % ID/g
  % ID/g Brain: 1.82 ± 0.08 % ID/g
  % ID/g Ceacum: 7.27 ± 0.62 % ID/g
  % ID/g Colon + faeces: 7.17 ± 2.93 % ID/g
  % ID/g Eyes: 18.36 ± 4.74 % ID/g
  % ID/g Heart: 2.72 ± 0.18 % ID/g
  % ID/g Kidney: 3.46 ± 0.53 % ID/g
  % ID/g Liver: 2.56 ± 0.22 % ID/g
  % ID/g Lung: 1.86 ± 0.15 % ID/g
  % ID/g Muscle: 1.17 ± 0.12 % ID/g
  % ID/g Pancreas: 2.09 ± 0.42 % ID/g
  % ID/g Skin: 1.44 ± 0.19 % ID/g
  % ID/g Small intestine: 7.58 ± 1.80 % ID/g
  % ID/g Spleen: 3.72 ± 1.49 % ID/g
  % ID/g Stomach: 4.41 ± 1.36 % ID/g
  TBR Tumour-to-Blood Ratio: 10.24 ± 2.83
  TBoR Tumour-to-Bone Ratio: 10.11 ± 1.87
  TMR Tumour-to-Muscle Ratio: 12.12 ± 2.29
[1]; 2 h p.i.
  % ID/g (tumour): 13.07 ± 1.22 % ID/g
  % ID/g Blood: 1.12 ± 0.24 % ID/g
  % ID/g Bones: 1.96 ± 0.51 % ID/g
  % ID/g Brain: 1.39 ± 0.25 % ID/g
  % ID/g Ceacum: 8.94 ± 1.78 % ID/g
  % ID/g Colon + faeces: 6.05 ± 1.72 % ID/g
  % ID/g Eyes: 18.17 ± 3.15 % ID/g
  % ID/g Heart: 2.14 ± 0.33 % ID/g
  % ID/g Kidney: 2.18 ± 0.43 % ID/g
  % ID/g Liver: 1.88 ± 0.34 % ID/g
  % ID/g Lung: 1.65 ± 0.11 % ID/g
  % ID/g Muscle: 0.92 ± 0.15 % ID/g
  % ID/g Pancreas: 1.33 ± 0.28 % ID/g
  % ID/g Skin: 1.51 ± 0.53 % ID/g
  % ID/g Small intestine: 4.28 ± 1.18 % ID/g
  % ID/g Spleen: 2.88 ± 2.11 % ID/g
  % ID/g Stomach: 2.48 ± 0.88 % ID/g
  TBR Tumour-to-Blood Ratio: 12.19 ± 3.32
  TBoR Tumour-to-Bone Ratio: 7.13 ± 2.21
  TMR Tumour-to-Muscle Ratio: 14.46 ± 2.62
[1]; 3 h p.i.
  % ID/g (tumour): 11.55±1.24 % ID/g
  % ID/g Blood: 0.80 ± 0.07 % ID/g
  % ID/g Bones: 3.27 ± 0.70 % ID/g
  % ID/g Brain: 1.37 ± 0.35 % ID/g
  % ID/g Ceacum: 10.79 ± 1.54 % ID/g
  % ID/g Colon + faeces: 8.09 ± 5.04 % ID/g
  % ID/g Eyes: 17.96 ± 2.73 % ID/g
  % ID/g Heart: 2.32 ± 0.50 % ID/g
  % ID/g Kidney: 2.19 ± 0.36 % ID/g
  % ID/g Liver: 1.99 ± 0.45 % ID/g
  % ID/g Lung: 1.60 ± 0.09 % ID/g
  % ID/g Muscle: 0.81 ± 0.10 % ID/g
  % ID/g Pancreas: 1.33 ± 0.35 % ID/g
  % ID/g Skin: 1.05 ± 0.12 % ID/g
  % ID/g Small intestine: 3.91 ± 1.05 % ID/g
  % ID/g Spleen: 1.87 ± 0.38 % ID/g
  % ID/g Stomach: 2.81 ± 2.23 % ID/g
  TBR Tumour-to-Blood Ratio: 14.43±1.75
  TBoR Tumour-to-Bone Ratio: 3.70 ± 1.17
  TMR Tumour-to-Muscle Ratio: 14.46±3.06
  in vivo defluorination: Partial in vivo defluorinations
A375 tumours; A375 tumour bearing mice
  muscles activity: 1.14±0.28 % ID/g
A375 tumours; day-23, unpigmented A375 tumours
  tumour uptake: 1.87±0.34 % ID/g
